Experimental data reported in patent publication EP4786487A1, “PEPTIDE” (Peptidream Inc, priority 2023, dated 2025).
Where two headings read alike, the source gives them in different places. Starred links: 1 amine or outer side, 2 acyl side, 3 side chain; linkers in the order of their positions; H or OH if unused. Positions of bridges follow the written chain, without caps; N, C: chain ends. Non-standard residues stand in square brackets, D forms with d. Residues, ends and D or L forms follow the SMILES beside them. *: point of attachment. Phe(3-OCH2COOH) = N[C@@H](Cc1cccc(OCC(=O)O)c1)C(=O)O; NMePhe(3-Ph) = CN[C@@H](Cc1cccc(-c2ccccc2)c1)C(=O)O; X2 = CC(=O)N1CCC(C[C@@H](C(=O)[*:2])N(C)[*:1])CC1; Phe(3-Ph) = N[C@@H](Cc1cccc(-c2ccccc2)c1)C(=O)O; Phe(4-COOH) = N[C@@H](Cc1ccc(C(=O)O)cc1)C(=O)O; NMePhe(4-Cl) = CN[C@@H](Cc1ccc(Cl)cc1)C(=O)O; Piperazinyl(4-CH2COOH) = O=C(O)CN1CCN(*)CC1; NMe2Nal = CN[C@@H](Cc1ccc2ccccc2c1)C(=O)O; 1Nal = N[C@@H](Cc1cccc2ccccc12)C(=O)O; AEF = NCCOc1ccc(C[C@H](N)C(=O)O)cc1; NMeY = CN[C@@H](Cc1ccc(O)cc1)C(=O)O; X1 = CCCCCCC[C@H](N[*:1])C(=O)[*:2]; NMeF = CN[C@@H](Cc1ccccc1)C(=O)O; NMeA = CN[C@@H](C)C(=O)O; Propyl(3-NH2) = NCCC*; Sar = CNCC(=O)O

Assays:
Myostatin = biological target: T1, Myostatin (Homo sapiens, UniProt O14793); assay: HepG2 reporter gene assay, Evaluation Procedure (2): 2-concentrations assay, myostatin inhibition; format: cell-based; conditions: HepG2
T1 construct: active myostatin (also called mature myostatin) is a homodimer consisting of two C-terminal growth factor domains; purchased R&D systems 788-G8/CF
T1 sequence (O14793 267-375): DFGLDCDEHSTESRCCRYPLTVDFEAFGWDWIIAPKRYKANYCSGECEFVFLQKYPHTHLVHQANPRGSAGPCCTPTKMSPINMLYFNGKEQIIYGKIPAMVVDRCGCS
Procedure, shortened: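 HepG2 cells (HB-8065, ATCC) carrying the transfected pGL3(CAGA)12-luc reporter plasmid were treated with myostatin (788-G8/CF, R&D systems) at a final concentration of 10 ng/mL plus peptide and incubated at 37°C, 5% CO2 for 20 to 24 hours. Luminescence was read after adding PBS mixed 1:1 with One-Glo substrate, and inhibition rate was calculated.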

GDF-11 = biological target: T2, GDF-11 (Homo sapiens, UniProt O95390); assay: HepG2 reporter gene assay, Evaluation Procedure (2): 2-concentrations assay, GDF-11 inhibition; format: cell-based; conditions: for inhibition at 0.03 µM: HepG2, peptide 30nM, read-out: GDF11 Inhibition 30nM; for inhibition at 0.03 µM / inhibition at 0.1 µM: GDF-11 10 ng/mL; for inhibition at 0.1 µM: HepG2, peptide 100nM, read-out: GDF11 Inhibition 100nM; for inhibition: read-out: inhibition rate (GDF-11 inhibition assay)
T2 construct: purchased R&D systems 1958-GD-G8/CF
T2 sequence (O95390 299-407): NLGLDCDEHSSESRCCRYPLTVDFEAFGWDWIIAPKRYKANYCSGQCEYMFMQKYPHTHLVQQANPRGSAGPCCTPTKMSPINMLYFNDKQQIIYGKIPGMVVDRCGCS
Procedure, shortened: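 HepG2 cells carrying the transfected pGL3(CAGA)12-luc reporter, a pGL3 vector with luciferase placed downstream of 12 CAGA repeats, were stimulated with GDF-11 at a final 10 ng/mL together with test peptide. Blank wells received no GDF-11 and no peptide. Plates were incubated 20 to 24 hours at 37°C with 5% CO2. Luminescence from One-Glo substrate was read to calculate percent inhibition.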

[1] = peptide 30nM, Myostatin 10 ng/mL, read-out: Myostatin Inhibition 30nM
[2] = peptide 100nM, Myostatin 10 ng/mL, read-out: Myostatin Inhibition 100nM
[3] = Table 7-3/7-4, myostatin 10 ng/mL, peptide at the higher of the 2 concentrations, read-out: inhibition rate (myostatin inhibition assay)
[4] = Table 7-3/7-4, myostatin 10 ng/mL, peptide at the lower of the 2 concentrations, read-out: inhibition rate (myostatin inhibition assay)
[5] = HepG2, first GDF-11 column of Table 7-3/7-4, GDF-11 10 ng/mL, peptide at the lower of the 2 concentrations
[6] = HepG2, second GDF-11 column of Table 7-3/7-4, GDF-11 10 ng/mL, peptide at the higher of the 2 concentrations

Row | SMILES | inhibition at 0.03 µM (Myostatin; [1]) | inhibition at 0.1 µM (Myostatin; [2]) | inhibition at 0.03 µM (GDF-11) | inhibition at 0.1 µM (GDF-11) | inhibition at 0.1 µM (Myostatin; [3]) | inhibition at 0.03 µM (Myostatin; [4]) | inhibition (GDF-11; [5]) | inhibition (GDF-11; [6])
1 | CCCCCCC[C@@H]1NC(=O)[C@H](Cc2ccccc2)N(C)C(=O)[C@H](CCCNC(=N)N)NC(=O)[C@H](Cc2ccc(C(=O)O)cc2)NC(=O)[C@H](Cc2cccc(OCC(=O)O)c2)NC(=O)CN(C)C(=O)[C@H]([C@@H](C)CC)NC(=O)[C@H](Cc2ccccc2)N(C)C(=O)[C@H](Cc2ccc(OCCN)cc2)NC(=O)[C@H](Cc2c[nH]c3ccccc23)NC(=O)[C@H](C)NC(=O)[C@H](C)NC(=O)CSC[C@H](C(=O)N2CCN(CC(=O)O)CC2)NC(=O)[C@H](Cc2ccccc2)N(C)C(=O)[C@H](C)N(C)C1=O [Myostatin_99_v299] ({CH2CO}-AAW[AEF][NMeF]I[Sar][Phe(3-OCH2COOH)][Phe(4-COOH)]R[NMeF][X1][NMeA][NMeF][dC]-{Piperazinyl(4-CH2COOH)}; thioether N-15) | 93% | 99% | 0% | 0% | – | – | – | –
2 | CCCCCCC[C@@H]1NC(=O)[C@H](Cc2ccccc2)N(C)C(=O)[C@H](CCCNC(=N)N)NC(=O)[C@H](Cc2ccc(C(=O)O)cc2)NC(=O)[C@H](Cc2cccc(OCC(=O)O)c2)NC(=O)CN(C)C(=O)[C@H]([C@@H](C)CC)NC(=O)[C@H](Cc2ccccc2)N(C)C(=O)[C@H](Cc2cccc3ccccc23)NC(=O)[C@H](Cc2c[nH]c3ccccc23)NC(=O)[C@H](C)NC(=O)[C@H](C)NC(=O)CSC[C@H](C(=O)N2CCN(CC(=O)O)CC2)NC(=O)[C@H](Cc2ccccc2)N(C)C(=O)[C@H](C)N(C)C1=O [Myostatin_99_v300] ({CH2CO}-AAW[1Nal][NMeF]I[Sar][Phe(3-OCH2COOH)][Phe(4-COOH)]R[NMeF][X1][NMeA][NMeF][dC]-{Piperazinyl(4-CH2COOH)}; thioether N-15) | 81% | 97% | 0% | 0% | – | – | – | –
3 | CCCCCCC[C@@H]1NC(=O)[C@H](Cc2ccccc2)N(C)C(=O)[C@H](CCCNC(=N)N)NC(=O)[C@H](Cc2ccc(C(=O)O)cc2)NC(=O)[C@H](Cc2cccc(OCC(=O)O)c2)NC(=O)CN(C)C(=O)[C@H]([C@@H](C)CC)NC(=O)[C@H](Cc2ccccc2)N(C)C(=O)[C@H](Cc2cccc(-c3ccccc3)c2)NC(=O)[C@H](Cc2c[nH]c3ccccc23)NC(=O)[C@H](C)NC(=O)[C@H](C)NC(=O)CSC[C@H](C(=O)N2CCN(CC(=O)O)CC2)NC(=O)[C@H](Cc2ccccc2)N(C)C(=O)[C@H](C)N(C)C1=O [Myostatin_99_v301] ({CH2CO}-AAW[Phe(3-Ph)][NMeF]I[Sar][Phe(3-OCH2COOH)][Phe(4-COOH)]R[NMeF][X1][NMeA][NMeF][dC]-{Piperazinyl(4-CH2COOH)}; thioether N-15) | 93% | 99% | 0% | 0% | – | – | – | –
4 | CCCCCCC[C@@H]1NC(=O)[C@H](Cc2ccccc2)N(C)C(=O)[C@H](CCCNC(=N)N)NC(=O)[C@H](Cc2ccc(C(=O)O)cc2)NC(=O)[C@H](Cc2cccc(OCC(=O)O)c2)NC(=O)CN(C)C(=O)[C@H]([C@@H](C)CC)NC(=O)[C@H](Cc2ccc(OCCCN)cc2)N(C)C(=O)[C@H](Cc2ccc(O)cc2)NC(=O)[C@H](Cc2c[nH]c3ccccc23)NC(=O)[C@H](C)NC(=O)[C@H](C)NC(=O)CSC[C@H](C(=O)N2CCN(CC(=O)O)CC2)NC(=O)[C@H](Cc2ccccc2)N(C)C(=O)[C@H](C)N(C)C1=O [Myostatin_99_v302] ({CH2CO}-AAWY[NMeY](Propyl(3-NH2))I[Sar][Phe(3-OCH2COOH)][Phe(4-COOH)]R[NMeF][X1][NMeA][NMeF][dC]-{Piperazinyl(4-CH2COOH)}; thioether N-15) | 99% | 100% | 0% | 0% | – | – | – | –
5 | CCCCCCC[C@@H]1NC(=O)[C@H](Cc2ccccc2)N(C)C(=O)[C@H](CCCNC(=N)N)NC(=O)[C@H](Cc2ccc(C(=O)O)cc2)NC(=O)[C@H](Cc2cccc(OCC(=O)O)c2)NC(=O)CN(C)C(=O)[C@H]([C@@H](C)CC)NC(=O)[C@H](CC2CCN(C(C)=O)CC2)N(C)C(=O)[C@H](Cc2ccc(O)cc2)NC(=O)[C@H](Cc2c[nH]c3ccccc23)NC(=O)[C@H](C)NC(=O)[C@H](C)NC(=O)CSC[C@H](C(=O)N2CCN(CC(=O)O)CC2)NC(=O)[C@H](Cc2ccccc2)N(C)C(=O)[C@H](C)N(C)C1=O [Myostatin_99_v303] ({CH2CO}-AAWY[X2]I[Sar][Phe(3-OCH2COOH)][Phe(4-COOH)]R[NMeF][X1][NMeA][NMeF][dC]-{Piperazinyl(4-CH2COOH)}; thioether N-15) | 100% | 100% | 39% | 67% | – | – | – | –
6 | CCCCCCC[C@@H]1NC(=O)[C@H](Cc2ccccc2)N(C)C(=O)[C@H](CCCNC(=N)N)NC(=O)[C@H](Cc2ccc(C(=O)O)cc2)NC(=O)[C@H](Cc2cccc(OCC(=O)O)c2)NC(=O)CN(C)C(=O)[C@H]([C@@H](C)CC)NC(=O)[C@H](Cc2cccc(-c3ccccc3)c2)N(C)C(=O)[C@H](Cc2ccc(O)cc2)NC(=O)[C@H](Cc2c[nH]c3ccccc23)NC(=O)[C@H](C)NC(=O)[C@H](C)NC(=O)CSC[C@H](C(=O)N2CCN(CC(=O)O)CC2)NC(=O)[C@H](Cc2ccccc2)N(C)C(=O)[C@H](C)N(C)C1=O [Myostatin_99_v304] ({CH2CO}-AAWY[NMePhe(3-Ph)]I[Sar][Phe(3-OCH2COOH)][Phe(4-COOH)]R[NMeF][X1][NMeA][NMeF][dC]-{Piperazinyl(4-CH2COOH)}; thioether N-15) | 74% | 88% | 0% | 0% | – | – | – | –
7 | CCCCCCC[C@@H]1NC(=O)[C@H](Cc2ccccc2)N(C)C(=O)[C@H](CCCNC(=N)N)NC(=O)[C@H](Cc2ccc(C(=O)O)cc2)NC(=O)[C@H](Cc2cccc(OCC(=O)O)c2)NC(=O)CN(C)C(=O)[C@H]([C@@H](C)CC)NC(=O)[C@H](Cc2ccc3ccccc3c2)N(C)C(=O)[C@H](Cc2ccc(O)cc2)NC(=O)[C@H](Cc2c[nH]c3ccccc23)NC(=O)[C@H](C)NC(=O)[C@H](C)NC(=O)CSC[C@H](C(=O)N2CCN(CC(=O)O)CC2)NC(=O)[C@H](Cc2ccccc2)N(C)C(=O)[C@H](C)N(C)C1=O [Myostatin_99_v306] ({CH2CO}-AAWY[NMe2Nal]I[Sar][Phe(3-OCH2COOH)][Phe(4-COOH)]R[NMeF][X1][NMeA][NMeF][dC]-{Piperazinyl(4-CH2COOH)}; thioether N-15) | – | – | – | – | 94% | 80% | 0% | 0%
8 | CCCCCCC[C@@H]1NC(=O)[C@H](Cc2ccccc2)N(C)C(=O)[C@H](CCCNC(=N)N)NC(=O)[C@H](Cc2ccc(C(=O)O)cc2)NC(=O)[C@H](Cc2cccc(OCC(=O)O)c2)NC(=O)CN(C)C(=O)[C@H]([C@@H](C)CC)NC(=O)[C@H](Cc2ccc(OC)cc2)N(C)C(=O)[C@H](Cc2ccc(O)cc2)NC(=O)[C@H](Cc2c[nH]c3ccccc23)NC(=O)[C@H](C)NC(=O)[C@H](C)NC(=O)CSC[C@H](C(=O)N2CCN(CC(=O)O)CC2)NC(=O)[C@H](Cc2ccccc2)N(C)C(=O)[C@H](C)N(C)C1=O [Myostatin_99_v307] ({CH2CO}-AAWY[NMeY](Me)I[Sar][Phe(3-OCH2COOH)][Phe(4-COOH)]R[NMeF][X1][NMeA][NMeF][dC]-{Piperazinyl(4-CH2COOH)}; thioether N-15) | – | – | – | – | 98% | 89% | 0% | 12%
9 | CCCCCCC[C@@H]1NC(=O)[C@H](Cc2ccccc2)N(C)C(=O)[C@H](CCCNC(=N)N)NC(=O)[C@H](Cc2ccc(C(=O)O)cc2)NC(=O)[C@H](Cc2cccc(OCC(=O)O)c2)NC(=O)CN(C)C(=O)[C@H]([C@@H](C)CC)NC(=O)[C@H](Cc2ccc(Cl)cc2)N(C)C(=O)[C@H](Cc2ccc(O)cc2)NC(=O)[C@H](Cc2c[nH]c3ccccc23)NC(=O)[C@H](C)NC(=O)[C@H](C)NC(=O)CSC[C@H](C(=O)N2CCN(CC(=O)O)CC2)NC(=O)[C@H](Cc2ccccc2)N(C)C(=O)[C@H](C)N(C)C1=O [Myostatin_99_v308] ({CH2CO}-AAWY[NMePhe(4-Cl)]I[Sar][Phe(3-OCH2COOH)][Phe(4-COOH)]R[NMeF][X1][NMeA][NMeF][dC]-{Piperazinyl(4-CH2COOH)}; thioether N-15) | – | – | – | – | 97% | 87% | 0% | 3%
